According to ChEMBL document CHEMBL3826909, “Quinoxaline-based inhibitors of Ebola and Marburg VP40 egress” (Bioorg Med Chem Lett, 2016):
pIC50: −log10 of the molar value. Calls of active or inactive are those of the source. No cut-off for these calls is given here.

Key:
[1] = target: T1, Matrix protein VP40 (Lake Victoria marburgvirus (strain Ravn-87) (MARV) (Marburg virus (strainKenya/Ravn/1987))) (UniProt Q1PDC8); assay: Inhibition of Marburg virus VP40 PPxY L-domain motif expressed in HEK293T cells assessed as reduction in VLP budding at 1 uM relative to control; format: cell-based; details: HEK-293T
T1 sequence (whole entry): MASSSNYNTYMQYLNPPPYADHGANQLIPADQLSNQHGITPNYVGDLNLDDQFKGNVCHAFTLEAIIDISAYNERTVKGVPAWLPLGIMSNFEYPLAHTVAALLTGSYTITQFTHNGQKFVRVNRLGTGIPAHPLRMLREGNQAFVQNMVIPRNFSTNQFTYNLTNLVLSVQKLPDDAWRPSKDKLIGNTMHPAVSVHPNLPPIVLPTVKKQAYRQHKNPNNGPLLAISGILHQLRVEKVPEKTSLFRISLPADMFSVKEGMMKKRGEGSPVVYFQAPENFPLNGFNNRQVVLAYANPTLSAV

[2] = target: T1, Matrix protein VP40 (Lake Victoria marburgvirus (strain Ravn-87) (MARV) (Marburg virus (strainKenya/Ravn/1987))); assay: Inhibition of Marburg virus VP40 PPxY L-domain motif expressed in HEK293T cells assessed as reduction in VLP budding at 0.03 uM relative to control; format: cell-based; details: HEK-293T
[3] = target: T1, Matrix protein VP40 (Lake Victoria marburgvirus (strain Ravn-87) (MARV) (Marburg virus (strainKenya/Ravn/1987))); assay: Inhibition of Marburg virus VP40 PPxY L-domain motif expressed in HEK293T cells assessed as reduction in VLP budding at 0.3 uM relative to control; format: cell-based; details: HEK-293T
[4] = target: T1, Matrix protein VP40 (Lake Victoria marburgvirus (strain Ravn-87) (MARV) (Marburg virus (strainKenya/Ravn/1987))); assay: Inhibition of Marburg virus VP40 PPxY L-domain motif expressed in HEK293T cells assessed as reduction in VLP budding at 0.1 uM relative to control; format: cell-based; details: HEK-293T
Cytochrome P450 3A4 = Cytochrome P450 3A4 (Homo sapiens, UniProt P08684); assay: Inhibition of CYP3A4 (unknown origin) using midazolam as substrate; format: ADME
[5] = Half life in mouse liver microsomes; format: ADME
Liver microsome [6] = assay: Intrinsic clearance in human liver microsomes assessed per mg of protein; format: ADME
Liver microsome [7] = assay: Half life in human liver microsomes; format: ADME
[8] = target: T1, Matrix protein VP40 (Lake Victoria marburgvirus (strain Ravn-87) (MARV) (Marburg virus (strainKenya/Ravn/1987))); assay: Inhibition of Marburg virus VP40 PPxY L-domain motif expressed in HEK293T cells assessed as reduction in VLP budding at 100 nM after 24 hrs by Western blot analysis; format: cell-based; details: HEK-293T
[9] = Cytotoxicity against human HEK293T cells assessed as cell viability at 0.01 uM after 24 hrs by MTT assay relative to control; format: cell-based, HEK-293T; details: read-out: Activity
[10] = Cytotoxicity against human HEK293T cells assessed as cell viability at 10 uM after 24 hrs by MTT assay relative to control; format: cell-based, HEK-293T; details: read-out: Activity
[11] = Cytotoxicity against human HEK293T cells assessed as cell viability at 1 uM after 24 hrs by MTT assay relative to control; format: cell-based, HEK-293T; details: read-out: Activity
[12] = Cytotoxicity against human HEK293T cells assessed as cell viability at 0.1 uM after 24 hrs by MTT assay relative to control; format: cell-based, HEK-293T; details: read-out: Activity
[13] = target: T1, Matrix protein VP40 (Lake Victoria marburgvirus (strain Ravn-87) (MARV) (Marburg virus (strainKenya/Ravn/1987))); assay: Inhibition of Marburg virus VP40 PPxY L-domain motif expressed in HEK293T cells assessed as reduction in VLP budding at 30 nM after 24 hrs by Western blot analysis relative to control; format: cell-based; details: HEK-293T
[14] = Cytotoxicity against African green monkey Vero E6 cells assessed as cell viability at 1 uM after 24 hrs by MTT assay relative to control; format: cell-based; details: chlorocebus sabaeus, read-out: Activity
[15] = Cytotoxicity against African green monkey Vero E6 cells assessed as cell viability at 0.01 uM after 24 hrs by MTT assay relative to control; format: cell-based; details: chlorocebus sabaeus, read-out: Activity
[16] = Cytotoxicity against African green monkey Vero E6 cells assessed as cell viability at 0.1 uM after 24 hrs by MTT assay relative to control; format: cell-based; details: chlorocebus sabaeus, read-out: Activity
[17] = target: T1, Matrix protein VP40 (Lake Victoria marburgvirus (strain Ravn-87) (MARV) (Marburg virus (strainKenya/Ravn/1987))); assay: Inhibition of Marburg virus VP40 PPxY L-domain motif-Nedd4 interaction in HEK293T cells coexpressing NYFP-Nedd4 and CYFP-mVP40 at 0.1 uM by inverted confocal microscopy based bimolecular complementation assay; format: cell-based; details: HEK-293T
[18] = Cytotoxicity against African green monkey Vero E6 cells assessed as cell viability at 10 uM after 24 hrs by MTT assay relative to control; format: cell-based; details: chlorocebus sabaeus, read-out: Activity

Chain of Cytochrome P450 3A4 (P08684 whole entry): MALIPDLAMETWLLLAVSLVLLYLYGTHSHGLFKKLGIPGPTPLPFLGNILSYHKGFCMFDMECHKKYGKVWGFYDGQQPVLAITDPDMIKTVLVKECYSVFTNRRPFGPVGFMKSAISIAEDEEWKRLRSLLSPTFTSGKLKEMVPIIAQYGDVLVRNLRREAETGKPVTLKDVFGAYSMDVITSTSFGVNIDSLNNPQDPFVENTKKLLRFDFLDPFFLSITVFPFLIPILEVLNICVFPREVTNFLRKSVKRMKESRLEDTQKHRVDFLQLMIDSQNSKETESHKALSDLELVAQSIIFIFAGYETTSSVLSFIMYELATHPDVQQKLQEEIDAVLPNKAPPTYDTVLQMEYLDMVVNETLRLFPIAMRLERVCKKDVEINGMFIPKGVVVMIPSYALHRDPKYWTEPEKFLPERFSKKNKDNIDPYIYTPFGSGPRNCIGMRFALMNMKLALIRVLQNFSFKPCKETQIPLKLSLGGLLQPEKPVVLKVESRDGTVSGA

Row | SMILES | inhibition [1] | inhibition [2] | inhibition [4] | other results
1 | Cc1nc2ccccc2nc1SCC(=O)NC(=O)Nc1c(C)nn(-c2ccccc2)c1C | inactive | – | – | –
2 | Cc1nc2ccccc2nc1SCC(=O)NC(=O)Nc1ccccc1F | 100% | inactive | 98% | inhibition [3]: 100%
3 | O=C(CSc1cnc2ccccc2n1)NC(=O)Nc1ccccc1F | inactive | – | – | –
4 | Cc1nc2ccccc2nc1SCC(=O)NC(=O)Nc1cccc(F)c1 | 41% | – | – | –
5 | Cc1ccncc1NC(=O)NC(=O)CSc1nc2ccccc2nc1C | – | – | 85% | –
6 | Cc1nc2ccccc2nc1SCC(=O)NC(=O)Nc1ccc(F)cc1 | 80% | – | – | –
7 | CCc1ccc(C)nc1NC(=O)NC(=O)CSc1nc2ccccc2nc1C | – | 48% | – | –
8 | Cc1cc(C)cc(NC(=O)NC(=O)CSc2nc3ccccc3nc2C)c1 | – | 44% | – | inhibition [3]: 100%
9 | COc1ccccc1NC(=O)NC(=O)CSc1nc2ccccc2nc1C | 96% | inactive | 60% | inhibition [3]: 89%
10 | Cc1cccc(NC(=O)NC(=O)CSc2nc3ccccc3nc2C)c1 | 100% | inactive | inactive | inhibition [3]: 71%
11 | Cc1ccc(NC(=O)NC(=O)CSc2nc3ccccc3nc2C)cn1 | – | – | 87% | –
12 | Cc1c(F)cccc1NC(=O)NC(=O)CSc1nc2ccccc2nc1C(F)(F)F | – | – | inactive | –
13 | Cc1ccc(C)c(NC(=O)NC(=O)CSc2nc3ccccc3nc2C)c1 | – | 68% | – | pIC50 (Cytochrome P450 3A4): < 4.48; inhibition [3]: 100%; t1/2 [5]: 1.9 min; Intrinsic clearance (Liver microsome [6]): 0.71 mL/min; t1/2 (Liver microsome [7]): 77.2 min
14 | Cc1cccnc1NC(=O)NC(=O)CSc1nc2ccccc2nc1C | – | – | 45% | –
15 | Cc1ccc(NC(=O)NC(=O)CSc2nc3ccccc3nc2C)nc1 | – | – | 96% | –
16 | O=C(CSc1nc2ccccc2nc1Cc1ccccc1)NC(=O)Nc1ccc(F)cc1 | inactive | – | – | –
17 | Cc1nc2ccccc2nc1SCC(=O)NC(=O)Nc1cc(Cl)ccc1Cl | – | 37% | – | –
18 | Cc1ccc(NC(=O)NC(=O)CSc2nc3ccccc3nc2C)cc1C | – | 29% | – | inhibition [3]: 97%
19 | Cc1ccc(NC(=O)NC(=O)COc2nc3ccccc3nc2C)cc1 | – | – | 70% | –
20 | Cc1ccccc1NC(=O)NC(=O)CSc1nc2ccccc2nc1C | 100% | 83% | 98% | inhibition [8]: > 90%; viability at 24 h, 0.01 µM [9]: 98.6%; pIC50 (Cytochrome P450 3A4): < 4.48; viability at 24 h, 10 µM [10]: 60.5%; viability at 24 h, 1 µM [11]: 62.8%; viability at 24 h, 0.1 µM [12]: 71.7%; fold change (FC) [13]: 3; viability at 24 h, 1 µM [14]: 71.2%; viability at 24 h, 0.01 µM [15]: 96.8%; t1/2 (Liver microsome [7]): 46.6 min; viability at 24 h, 0.1 µM [16]: 92.3%; inhibition [17]: Active; viability at 24 h, 10 µM [18]: 61.7%
21 | Cc1nc2ccccc2nc1SCC(=O)NC(=O)N(C)c1ccccc1 | inactive | – | – | –
22 | Cc1nc2ccccc2nc1SCC(=O)NC(=O)Nc1ccccn1 | 80% | – | inactive | –
23 | Cc1ncccc1NC(=O)NC(=O)CSc1nc2ccccc2nc1C | – | – | 41% | –
24 | Cc1nc2ccccc2nc1SCC(=O)NC(=O)Nc1cccnc1 | 78% | – | 44% | –
25 | Cc1cccc(C)c1NC(=O)NC(=O)CSc1nc2ccccc2nc1C | – | inactive | – | inhibition [3]: 100%
